From patent publication US11339140B2, “Compositions and methods comprising substituted 2-aminoimidazoles” (Curza Global, LLC, priority 2017, dated 2022)
Converted amounts (≈) assume the structure as drawn.

Assays:
[1] = tested on: Mycobacterium tuberculosis; details: cited from earlier work
Candida albicans = details: cited from earlier work
breast cancer = assay: cancer-selective cell death with Zn2+; type: cell-based; details: caspase-independent mechanism
[2] = tested on: primary metastatic cells derived from breast cancer patients; assay: activity against primary metastatic cells derived from breast cancer patients; type: cell-based, human; details: patients treated with multiple frontline chemotherapeutics
[3] = tested on: mouse mammary tumor model; assay: mouse mammary tumor model; type: in vivo

SMILES | IC50 against Mycobacterium tuberculosis [1] [µg/mL] | MIC100 against Candida albicans (Candida albicans) [µM] | synergy with Zn2+ in inducing cancer-selective cell death (breast cancer) | efficacy against primary metastatic cells from breast cancer patients [2] | in vivo efficacy [3]
COc1ccc(Cc2nc(NC3=NC(=O)N(C)C3=O)n(C)c2Cc2ccc(O)cc2)cc1 [Naamidine A] | 0.41 (≈ 0.946 µM) | 0.78 (≈ 0.338 µg/mL) | – | – | –
COc1ccc(-c2c(Cc3ccccc3)[nH]/c(=N\C(=O)c3ccccc3F)n2C)cc1 [ZNA] | – | – | synergizes strongly with Zn^2+ to induce cancer-selective cell death | effective | in vivo efficacy was established
